Assay results reported in ChEMBL document CHEMBL1130665, “Synthesis and biological evaluation of a water soluble phosphate prodrug of 3-aminopyridine-2-carboxaldehyde thiosemicarbazone (3-AP)” (Bioorg Med Chem Lett, 1998).

Experiments:
[1] = Compound was evaluated for plasma clearance.; assay type: ADME, organism-based, Canis lupus familiaris; conditions: dog
Canis familiaris = species: Canis familiaris; test: Compound was evaluated for area under the curve in dog blood.; assay type: ADME, organism-based, Canis lupus familiaris; conditions: in vivo
M109 [2] = test: In vivo antitumor activity evaluated against M-109 murine lung carcinoma cells in BALB/c mice administered intraperitoneally at a dose of 10 mg/kg; assay type: functional, Mus musculus; conditions: route intraperitoneal
M109 [3] = test: In vivo antitumor activity evaluated against M-109 murine lung carcinoma cells in BALB/c mice administered intraperitoneally at a dose of 4.5 mg/kg; assay type: functional, Mus musculus; conditions: route intraperitoneal

SMILES	clearance [1] [mL/min/kg]	AUC (Canis familiaris) [mg/min/L]	Tumor volume reduction (M109 [2]) [%]	Tumor volume reduction (M109 [3]) [%]
N/C(S)=N/N=C/c1ncccc1NC(=O)OCc1ccc(OP(=O)([O-])[O-])cc1.[Na+].[Na+]	43.8	74.04	46	–
NC(=S)N/N=C/c1ncccc1N [TRIAPINE]	40.6	71.59	–	30
